Measured values from PubChem BioAssay (NCI).
Values joined by “and” are separate entries in the source; they are usually repeats but may differ in a detail not shown here. Equal entries are not always repeated.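 Five concentrations, 48 hours, 96-well plates. TGI marks complete inhibition of growth.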 Where a SMILES comes first, the peptide text is derived from it. The star is where a group is joined. Boc = CC(C)(C)OC(=O)*; tBu = CC(C)(C)*

Experiments:
Assay in all cases: DTP human tumour cell line panel, 48 h
[1] = system: SR leukemia
[2] = system: MDA-MB-231 breast
[3] = system: RPMI-8226 leukemia
[4] = system: A549 NSCLC
[5] = system: SN12C renal
[6] = system: HCT-116 colon
[7] = system: UO-31 renal
[8] = system: SF-295 CNS
[9] = system: NCI-H460 lung
[10] = system: HCT-15 colon
[11] = system: T-47D breast
[12] = system: NCI-H522 lung
[13] = system: OVCAR-5 ovarian
[14] = system: HCC-2998 colon
[15] = system: MOLT-4 leukemia
[16] = system: BT-549 breast
[17] = system: COLO 205 colon
[18] = system: OVCAR-8 ovarian
[19] = system: NCI/ADR-RES ovarian
[20] = system: RXF 393 renal

SMILES	TGI [1]	TGI [2]	TGI [3]	TGI [4]	TGI [5]	TGI [6]	TGI [7]	TGI [8]	TGI [9]	TGI [10]	TGI [11]	TGI [12]	TGI [13]	TGI [14]	TGI [15]	TGI [16]	TGI [17]	TGI [18]	TGI [19]	TGI [20]
Cn1c(SCc2c[nH]c3ccccc23)nnc1-c1ccc(Cl)cc1Cl	16.6 µM	66.3 µM	27.1 µM	48.5 µM	47.5 µM	93 µM	82.9 µM	27.2 µM	26.3 µM	> 100 µM	43.2 µM	45.9 µM	86.7 µM	26.1 µM	27.5 µM	87.5 µM	27.4 µM	> 100 µM	27.3 µM	32.5 µM
O=S(=O)(c1ccc2ccccc2c1)N1CCN(S(=O)(=O)c2ccc3ccccc3c2)CC1	> 100 µM	> 100 µM	> 100 µM	> 100 µM	> 100 µM	> 100 µM	> 100 µM	> 100 µM	> 100 µM	> 100 µM	> 100 µM	> 100 µM	> 100 µM	> 100 µM	–	> 100 µM	> 100 µM	> 100 µM	> 100 µM	> 100 µM
CC(C)=NNc1ncnc2nc[nH]c12	> 60.8 µM	> 94.3 µM	> 62 µM	> 72.4 µM	> 100 µM	> 75.4 µM	> 87.9 µM	> 100 µM	38.9 µM	> 100 µM	> 79.1 µM	32.2 µM	> 48.4 µM	32 µM	> 100 µM	> 100 µM	59.5 µM	> 100 µM	> 100 µM	> 100 µM
CCCCC1Cc2cc(OC)ccc2-c2n1c1cc(OC)ccc1[n+]2C (stereo not drawn) (tested in a mixture with another compound)	12.1 µM	20.6 µM	2.17 µM	> 45.7 µM	7.97 µM	> 39.9 µM	30.9 µM	> 37.3 µM	18.1 µM	> 56.7 µM	45.1 µM	6.85 µM	68.2 µM	8.51 µM	> 51.6 µM	79 µM	1.69 µM	49 µM	> 100 µM	45.8 µM
CCCCCC(/C=C/[C@@H]1[C@@H](C(O)CCCCCC(=O)OC)C(=O)C[C@H]1O[Si](C)(C)C(C)(C)C)OCOCCOC (stereo partly drawn)	> 31.6 µM	44.1 µM	> 25.7 µM	> 68.2 µM	45.7 µM	16.1 µM	28.9 µM	32.6 µM	> 100 µM	27.5 µM	51.8 µM	14.5 µM	48 µM	> 57 µM	4.87 µM	24.8 µM	49.6 µM	42.8 µM	51.8 µM	39.8 µM
CCCCOCCOCCOC1=C(Cl)C(=O)c2c(O)ccc(O)c2C1=O	0.117 µM	1.32 µM	1.32 µM	4.14 µM	2.96 µM	1.41 µM	2.68 µM	3.13 µM	4.4 µM	1.11 µM	2.52 µM	–	5.33 µM	4.79 µM	0.1 µM	2.72 µM	0.756 µM	7.43 µM	7.49 µM	2.05 µM
Cc1cc(NS(=O)(=O)c2ccc(NC(=O)c3ccc4nc5ccccc5c(Nc5ccc(S(=O)(=O)Nc6cc(C)on6)cc5)c4c3)cc2)no1	> 50 µM	> 50 µM	> 50 µM	> 50 µM	> 50 µM	> 50 µM	> 50 µM	> 50 µM	> 50 µM	> 50 µM	> 50 µM	> 50 µM	> 50 µM	> 50 µM	> 50 µM	> 50 µM	> 50 µM	> 50 µM	> 50 µM	> 50 µM
C=C1C(=O)O[C@@H]2[C@H]1C[C@H](I)[C@@]1(C)CC[C@H](O1)[C@](C)(I)CCCC(C)[C@@H]2O (stereo partly drawn)	9.41 µM	16.3 µM	9.3 µM	26.9 µM	17.7 µM	8.34 µM	7.74 µM	31.8 µM	28.6 µM	4.57 µM	12.7 µM	1.59 µM	26.5 µM	25.2 µM	> 23.4 µM	20.9 µM	4.95 µM	8.12 µM	9.84 µM	4.44 µM
Nc1ncnc2c1N=C(c1ccccc1)CC(c1ccccc1)N2 (stereo not drawn)	> 100 µM	> 100 µM	> 100 µM	> 100 µM	> 100 µM	> 100 µM	> 100 µM	> 100 µM	–	> 100 µM	> 100 µM	> 100 µM	> 100 µM	> 100 µM	> 100 µM	> 100 µM	> 100 µM	> 100 µM	> 100 µM	> 100 µM
C=C(Cl)C(Cl)(CBr)CCC(Br)C(C)(C)Cl (stereo not drawn)	61.2 µM and 26.5 µM and 33.9 µM	2.92 µM and 5.94 µM and 27.2 µM	1.33 µM and 1.56 µM and 3.22 µM	9.99 µM and 7.54 µM and 16.7 µM	21.9 µM and 19.3 µM and 28.1 µM	1.77 µM and 1.61 µM and 5.75 µM	3.71 µM and 3.73 µM and 11.3 µM	3.53 µM and 3.04 µM and 3.7 µM	3.66 µM and 2.93 µM and 5.82 µM	10.6 µM and 6.12 µM and 27.8 µM	2.99 µM and 5.16 µM and 1.25 µM	34.9 µM and 27.1 µM and 28.9 µM	8.38 µM and 4.14 µM and 29.8 µM	6.35 µM and 2.97 µM and 8.14 µM	59.8 µM and 33.4 µM and 54.3 µM	7.21 µM and 15.7 µM and 9.1 µM	4.02 µM and 7.41 µM and 31.6 µM	5.15 µM and 2.59 µM and 17 µM	7.18 µM and 4.48 µM and 33.2 µM	3.92 µM and 0.991 µM and 4.49 µM
COC1(c2ccccc2)NC(=S)NN=C1c1ccccc1 (stereo not drawn)	85.8 µM	70.9 µM	> 100 µM	> 100 µM	60.8 µM	> 100 µM	> 100 µM	99.3 µM	71.6 µM	64.2 µM	> 100 µM	73.8 µM	> 100 µM	37.8 µM	> 100 µM	82.8 µM	49.8 µM	84 µM	37.7 µM	> 100 µM
N#Cc1c(N)nc2n[nH]c(N)c2c1-c1ccccc1	> 60.1 µM	38.7 µM	> 53.8 µM	> 65.5 µM	31.8 µM	46.1 µM	32.3 µM	29.7 µM	> 53.2 µM	> 77.8 µM	3.9 µM	18 µM	> 100 µM	> 57 µM	32.4 µM	40.2 µM	24.3 µM	41.8 µM	48.5 µM	13.2 µM
O=C(/C=C/c1ccc(Cl)cc1)c1ccc(Cl)s1	> 100 µM	> 100 µM	80.1 µM	> 100 µM	> 100 µM	22.4 µM	> 100 µM	> 100 µM	> 100 µM	> 100 µM	> 100 µM	> 100 µM	> 100 µM	47.3 µM	> 100 µM	80.7 µM	> 100 µM	> 100 µM	> 100 µM	85.8 µM
O=C(Nc1ccc(Cl)c(C(F)(F)F)c1)C(=O)c1c(O)c2ccccc2oc1=O	> 100 µM	> 100 µM	> 100 µM	> 100 µM	> 100 µM	> 100 µM	> 100 µM	> 100 µM	> 100 µM	> 100 µM	> 100 µM	> 100 µM	> 100 µM	> 100 µM	> 100 µM	> 100 µM	–	> 100 µM	> 100 µM	> 100 µM
COc1cccc(N2C(=O)C3CC(CC(C)(C)C)c4c([nH]c5ccccc45)C3C2=O)c1 (stereo not drawn)	4.2 µM	> 10 µM	> 10 µM	> 10 µM	> 10 µM	> 10 µM	–	> 10 µM	> 10 µM	> 10 µM	> 10 µM	> 10 µM	> 10 µM	> 10 µM	> 10 µM	> 10 µM	> 10 µM	> 10 µM	> 10 µM	> 10 µM
COC(=O)c1ccccc1/C=C1\Cc2ccc3ccccc3c2C1C (stereo not drawn)	> 100 µM	> 100 µM	> 100 µM	> 100 µM	> 100 µM	46.1 µM	> 100 µM	> 100 µM	> 100 µM	> 100 µM	69 µM	> 100 µM	> 100 µM	> 100 µM	> 100 µM	> 100 µM	> 100 µM	> 100 µM	> 100 µM	> 100 µM
COc1cccc(-c2[nH]c3cc4c(cc3c(=O)c2C(=O)O)OCO4)c1	> 100 µM	> 100 µM	> 100 µM	> 100 µM	> 100 µM	> 100 µM	> 100 µM	79.4 µM	> 100 µM	> 100 µM	> 100 µM	–	> 100 µM	74.6 µM	> 100 µM	> 100 µM	74.9 µM	65.9 µM	47.3 µM	> 100 µM
Clc1cccc2[nH]ncc12	> 100 µM	> 100 µM	> 100 µM	> 100 µM	> 100 µM	> 100 µM	–	> 100 µM	> 100 µM	> 100 µM	> 100 µM	> 100 µM	> 100 µM	> 100 µM	> 100 µM	> 100 µM	> 100 µM	> 100 µM	> 100 µM	> 100 µM
N#C[C@H](C(=O)c1ccccc1F)c1nc2ccccc2[nH]1	> 100 µM	> 100 µM	> 100 µM	> 100 µM	> 100 µM	> 100 µM	> 100 µM	> 100 µM	> 100 µM	> 100 µM	> 100 µM	–	> 100 µM	> 100 µM	> 100 µM	> 100 µM	> 100 µM	> 100 µM	> 100 µM	> 100 µM
CCN(CC)Cc1ccc(Nc2c3ccccc3nc3ccccc23)cc1	22.2 µM	4.64 µM	–	2.82 µM	7.66 µM	6.99 µM	5.22 µM	10.9 µM	3.05 µM	2.56 µM	16.7 µM	3.56 µM	5.46 µM	2.4 µM	> 100 µM	23.6 µM	5.78 µM	15 µM	22.4 µM	3.96 µM
COC(=O)[C@]1(C)[C@H]2C[C@H]3O[C@H]4[C@H](O)[C@@H](O)OC(CC(O)C(C5=CC(=O)OC5)C(C5=CC(=O)OC5)C(O)CC56CCCCC7[C@@H](C)[C@H](C[C@H]8[C@](C)(C(=O)OC)[C@H](O)CC[C@]78C)O[C@H]([C@@H](O)[C@H](O)O5)[C@H]6O)(CCCCC([C@@H]3C)[C@]2(C)CC[C@@H]1O)[C@H]4O (stereo partly drawn)	0.253 µM	1.89 µM	0.539 µM	0.182 µM	0.159 µM	0.53 µM	0.442 µM	–	0.014 µM	1.11 µM	6.62 µM	0.0558 µM	3.14 µM	2.94 µM	0.0883 µM	0.305 µM	1.33 µM	1.2 µM	0.286 µM	0.264 µM
COc1cccc(/C=C2/S/C(=N/Nc3nc(C)c(C(C)=O)s3)NC2=O)c1O	> 100 µM	44.8 µM	84.6 µM	> 100 µM	> 100 µM	> 100 µM	51.3 µM	> 100 µM	> 100 µM	> 100 µM	96.5 µM	33.2 µM	94.2 µM	> 100 µM	–	97 µM	64.9 µM	> 100 µM	> 100 µM	93.2 µM
CC(OC(C)(C)C)C(NC(=O)C(N)CCCCNC(=O)OC(C)(C)C)C(=O)NC(Cc1ccccc1)C(=O)O (stereo not drawn) (H-Lys(Boc)-Thr(tBu)-Phe-OH; configuration not given here)	> 100 µM	> 100 µM	> 100 µM	> 100 µM	> 100 µM	> 100 µM	> 100 µM	> 100 µM	> 100 µM	> 100 µM	> 100 µM	–	> 100 µM	> 100 µM	> 100 µM	> 100 µM	> 100 µM	> 100 µM	> 100 µM	> 100 µM
